Laboratory results from patent EP4603105A1, “PHARMACEUTICAL COMPOSITION CONTAINING CYCLIC COMPOUND HAVING SELECTIVE KRAS INHIBITORY EFFECT AGAINST HRAS AND NRAS” (CHUGAI SEIYAKU KABUSHIKI KAISHA, priority 2022, dated 2024).
Like-named read-outs stand apart in the source and are kept apart here.

Columns and labels:
[1] = biological target: GDP-bound KRAS wild-type protein (Homo sapiens, UniProt P01116); assay: Binding to KRAS by surface plasmon resonance (SPR), dissociation constant KD
In short: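 Measured at 30°C: SPR with GDP-loaded, E. coli-expressed biotin-Avi RAS captured (~100–300 RU), ascending 75 s compound injections, HBS pH 7.4 with GDP, MgCl2, 4% DMSO. KD from 1:1 fit.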

[2] = biological target: HRAS wild-type protein (Homo sapiens, UniProt P01112); assay: Binding to HRAS by surface plasmon resonance (SPR), KD and KD ratio to KRAS
Chain of HRAS wild-type protein (P01112 whole entry): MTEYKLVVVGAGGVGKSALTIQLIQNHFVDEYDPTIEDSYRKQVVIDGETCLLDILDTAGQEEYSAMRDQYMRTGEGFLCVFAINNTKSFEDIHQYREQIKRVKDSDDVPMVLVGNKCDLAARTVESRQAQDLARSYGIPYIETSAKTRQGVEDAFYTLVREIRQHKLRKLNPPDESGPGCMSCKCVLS
In short: (§1)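 GDP-loaded biotinylated Avi-tag RAS proteins (E. coli-expressed) captured on a Biotin CAPture chip at ~100–300 RU; single-cycle kinetics at 30°C, 100 µL/min, 75 s injections of rising compound concentrations. HBS pH 7.4 running buffer with 1 mM DTT, 10 mM MgCl2, 10 µM GDP, 4% DMSO. KD from 1:1 binding fit.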

[3] = tested on: human lung cancer strain NCI-H441; assay: NCI-H441 cell proliferation inhibitory activity (CellTiter-Glo, 4 days); assay type: cell-based; conditions: read-out: NCl-H441 IC50
In short: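 Readout: […] after the ATP-based reagent. Compound: serial dilutions in dimethyl sulfoxide.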

[4] = biological target: GDP-bound NRAS wild-type protein (Homo sapiens, UniProt P01111); assay: Binding to NRAS by surface plasmon resonance (SPR), KD and KD ratio to KRAS
Chain of GDP-bound NRAS wild-type protein (P01111 whole entry): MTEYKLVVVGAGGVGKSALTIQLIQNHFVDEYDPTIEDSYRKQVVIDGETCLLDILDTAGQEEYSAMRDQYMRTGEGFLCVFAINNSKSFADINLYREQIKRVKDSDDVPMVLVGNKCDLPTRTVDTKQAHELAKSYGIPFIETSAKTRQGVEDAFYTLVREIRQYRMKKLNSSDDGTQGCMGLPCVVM
In short: as §1

[5] = Single Cycle Kinetics, 1:1 binding model
[6] = ratio of KD with respect to HRAS wild-type protein to KD with respect to KRAS
[7] = 50% proliferation inhibitory concentration, four days
[8] = ratio of KD with respect to GDP-bound NRAS wild-type protein to KD with respect to KRAS
[9] = ratio of KD for HRAS wild-type protein to KD for KRAS
[10] = ratio of KD for GDP-bound NRAS wild-type protein to KD for KRAS

Chain of GDP-bound KRAS wild-type protein (P01116 1-188 isoform P01116-2): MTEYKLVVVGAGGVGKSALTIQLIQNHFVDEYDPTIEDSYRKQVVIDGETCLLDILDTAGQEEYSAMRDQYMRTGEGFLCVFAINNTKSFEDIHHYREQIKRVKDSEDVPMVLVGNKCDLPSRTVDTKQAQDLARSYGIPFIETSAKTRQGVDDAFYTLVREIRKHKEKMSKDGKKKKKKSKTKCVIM

| Kd [1, 5] [nM] | IC50 [3, 7] [nM] | Kd ([1]; Single Cycle Kinetics) [nM] | IC50 ([3]; NCI-H441 cells, 4 days) [nM] | Kd ([1]; 1:1 binding model) [nM] | Structure (SMILES) | HRAS /KRAS [2, 6] | NRAS /KRAS [4, 8] | HRAS /KRAS [2, 9] | NRAS /KRAS [4, 10] |
| --- | --- | --- | --- | --- | --- | --- | --- | --- | --- |
|  |  | 0.72 | 25.8 |  | CCCO[C@@H]1C[C@H]2C(=O)NC3(CC(C)(C)C3)C(=O)N(C)[C@@H](C3CCCC3)C(=O)N(C)[C@H](C(=O)N(C)CC)CC(=O)N(C)[C@@H](COCC)C(=O)N[C@@H]([C@@H](C)CC)C(=O)N(C3CC3)CC(=O)N(C)[C@H]3C/C=C\CCN(C3=O)[C@@H](Cc3ccc(C(F)(F)F)cc3)C(=O)N(C)CC(=O)N[C@@H](CCc3ccc(C(F)(F)F)c(OC)c3)C(=O)N2C1 [PP3411] |  |  | A (a compound having 10 or more and less than 20 is denoted as A) | A (a compound having 10 or more and less than 20 is denoted as A) |
|  |  | 0.31 | 12.2 |  | CCc1cc(CC[C@@H]2NC(=O)CN(C)C(=O)[C@H](Cc3ccc(C(F)F)cc3)N3CC/C=C\C[C@@H](C3=O)N(C)C(=O)CN(C)C(=O)[C@H]([C@@H](C)OC)NC(=O)[C@H](CC)N(C)C(=O)C[C@@H](C(=O)N(C)C)N(C)C(=O)[C@H](C(CC)CC)N(C)C(=O)C3(CCC3)N(C)C(=O)[C@@H]3C[C@@H](OC(C)C)CN3C2=O)ccc1C(F)(F)F [PP3500] |  |  | A (a compound having 10 or more and less than 20 is denoted as A) | A (a compound having 10 or more and less than 20 is denoted as A) |
|  |  | 1.7 | 84.8 |  | CCC[C@H]1C(=O)N[C@@H]([C@@H](C)CC)C(=O)N2CCCC[C@H]2C(=O)N(C)[C@H]2C/C=C\CCN(C2=O)[C@@H](Cc2ccc(C)cc2)C(=O)N(C)CC(=O)N[C@@H](CCc2ccc(C(F)(F)F)c(Cl)c2)C(=O)N2C[C@H](OCC)C[C@H]2C(=O)N(C)C2(CCC2)C(=O)N(C)[C@@H](C2CCCC2)C(=O)N(C)[C@H](C(=O)N(C)C)CC(=O)N1C [PP3275] |  |  | B (a compound having 3 or more and less than 10 is denoted as B) | B (a compound having 3 or more and less than 10 is denoted as B) |
|  |  |  | 51 | 1.1 | CCC[C@H]1C(=O)N[C@@H]([C@@H](C)CC)C(=O)N(C2CC2)CC(=O)N(C)[C@H]2C/C=C\CCN(C2=O)[C@@H](Cc2ccc(C)cc2)C(=O)N(C)CC(=O)N[C@@H](CCc2ccc(Cl)c(Cl)c2)C(=O)N2C[C@H](OCC)C[C@H]2C(=O)NC2(CC(C)(C)C2)C(=O)N(C)[C@@H](CC(C)(C)C)C(=O)N(C)[C@H](C(=O)N(C)C)CC(=O)N1C [PP2726] |  |  | A (a compound having 10 or more and less than 20 is denoted as A) | AA (a compound having 20 or more is denoted as AA) |
|  |  | 1.9 | 480 |  | CCO[C@@H]1C[C@H]2C(=O)NC3(CC(C)(C)C3)C(=O)N(C)[C@@H](C3CCCC3)C(=O)N(C)[C@H](C(=O)N(C)CC)CC(=O)N(C)[C@@H]([C@H](C)OC)C(=O)N[C@@H]([C@@H](C)CC)C(=O)N3CCC[C@H]3C(=O)N(C)[C@H]3C/C=C\CCN(C3=O)[C@@H](Cc3ccc(C)cc3)C(=O)N(C)CC(=O)N[C@@H](CCc3ccc(C(F)(F)F)c(Cl)c3)C(=O)N2C1 [PP3165] |  |  | A (a compound having 10 or more and less than 20 is denoted as A) | A (a compound having 10 or more and less than 20 is denoted as A) |
|  |  | 0.81 | 15.2 |  | CCCO[C@@H]1C[C@H]2C(=O)NC3(CC(C)(C)C3)C(=O)N(C)[C@@H](C3CCCC3)C(=O)N(C)[C@H](C(=O)N(C)CC)CC(=O)N(C)[C@@H](COCC)C(=O)N[C@@H]([C@@H](C)CC)C(=O)N(C3CC3)CC(=O)N(C)[C@H]3C/C=C\CCN(C3=O)[C@@H](Cc3ccc(C(F)(F)F)cc3)C(=O)N(C)CC(=O)N[C@@H](CCc3ccc(C(F)(F)F)c(Cl)c3)C(=O)N2C1 [PP3403] |  |  | A (a compound having 10 or more and less than 20 is denoted as A) | A (a compound having 10 or more and less than 20 is denoted as A) |
|  |  | 0.6 | 38.6 |  | CCO[C@@H]1C[C@H]2C(=O)NC3(CCCC3)C(=O)N(C)[C@@H](C3CCCC3)C(=O)N(C)[C@H](C(=O)N(C)C)CC(=O)N(C)[C@@H]([C@@H](C)OC)C(=O)N[C@@H]([C@@H](C)CC)C(=O)N(C3CC3)CC(=O)N(C)[C@H]3C/C=C\CCN(C3=O)[C@@H](Cc3ccc(C)cc3)C(=O)N(C)CC(=O)N[C@@H](CCc3cc(F)c(C(F)(F)F)c(F)c3)C(=O)N2C1 [PP3482] |  |  | A (a compound having 10 or more and less than 20 is denoted as A) | A (a compound having 10 or more and less than 20 is denoted as A) |

The next lines start with the compound.

| Structure (SMILES) | Kd [1, 5] [nM] | IC50 [3, 7] [nM] | Kd ([1]; Single Cycle Kinetics) [nM] | IC50 ([3]; NCI-H441 cells, 4 days) [nM] | Kd ([1]; 1:1 binding model) [nM] | HRAS /KRAS [2, 6] | NRAS /KRAS [4, 8] | HRAS /KRAS [2, 9] | NRAS /KRAS [4, 10] |
| --- | --- | --- | --- | --- | --- | --- | --- | --- | --- |
| CCO[C@@H]1C[C@H]2C(=O)NC3(CCC3)C(=O)N(C)[C@@H](C3CCCC3)C(=O)N(C)[C@H](C(=O)N3CCOCC3)CC(=O)N(C)[C@@H](CC3CCC3)C(=O)N[C@@H]([C@@H](C)CC)C(=O)N(C)CC(=O)N(C)[C@H]3C/C=C\CCN(C3=O)[C@@H](Cc3ccc(C(F)(F)F)cc3)C(=O)N(C)CC(=O)N[C@@H](CCc3cc(F)c(C(F)(F)F)c(F)c3)C(=O)N2C1 [PP1422] | 0.22 | 14.1 |  |  |  | A (a compound having 10 or more and less than 20 is denoted as A) | AA (a compound having 20 or more is denoted as AA) |  |  |
| CCC[C@H]1C(=O)N[C@@H]([C@@H](C)CC)C(=O)N(C)CC(=O)N(C)[C@H]2C/C=C\CCN(C2=O)[C@@H](Cc2ccc(C)cc2)C(=O)N(C)CC(=O)N[C@@H](CCc2ccc(Cl)c(Cl)c2)C(=O)N2C[C@H](OC3CCC3)C[C@H]2C(=O)NC2(CC(C)(C)C2)C(=O)N(C)[C@@H](C(CC)CC)C(=O)N(C)[C@H](C(=O)N(C)C)CC(=O)N1C [PP2644] |  |  |  | 75 | 0.81 |  |  | A (a compound having 10 or more and less than 20 is denoted as A) | AA (a compound having 20 or more is denoted as AA) |
| CCC(CC)[C@H]1C(=O)N(C)[C@H](C(=O)N(C)C)CC(=O)N(C)[C@@H](COC)C(=O)N[C@@H]([C@@H](C)CC)C(=O)N(C2CC2)CC(=O)N(C)[C@H]2C/C=C\CCN(C2=O)[C@@H](CC2CCC(F)(F)CC2)C(=O)N(C)CC(=O)N[C@@H](CCc2ccc(Cl)c(Cl)c2)C(=O)N2C[C@H](OC(C)C)C[C@H]2C(=O)NC2(CC(C)(C)C2)C(=O)N1C [PP2525] |  |  |  | 142 | 3.8 |  |  | A (a compound having 10 or more and less than 20 is denoted as A) | AA (a compound having 20 or more is denoted as AA) |
| CCO[C@@H]1C[C@H]2C(=O)NC3(CCC3)C(=O)N(C)[C@@H](C3CCCC3)C(=O)N(C)[C@H](C(=O)N3CCOCC3)CC(=O)N(C)[C@@H](CC)C(=O)N[C@@H]([C@@H](C)CC)C(=O)N3CC[C@H]3C(=O)N(C)[C@H]3C[C@@H](C)[C@@H](C)CN(C3=O)[C@@H](Cc3ccc(C(F)(F)F)cc3)C(=O)N(C)CC(=O)N[C@@H](CCc3ccc(C(F)(F)F)c(Cl)c3)C(=O)N2C1 [PP1357] | 0.13 | 5.4 |  |  |  | B (a compound having 3 or more and less than 10 is denoted as B) | A (a compound having 10 or more and less than 20 is denoted as A) |  |  |
| CCO[C@@H]1C[C@H]2C(=O)NC3(CCC3)C(=O)N(C)[C@@H](C(CC)CC)C(=O)N(C)[C@H](C(=O)N(C)C)CC(=O)N(C)[C@@H](CC)C(=O)N[C@@H]([C@@H](C)CC)C(=O)N(C)CC(=O)N(C)[C@H]3C/C=C\CCN(C3=O)[C@@H](Cc3ccc(C(F)(F)F)cc3)C(=O)N(C)CC(=O)N[C@@H](CCc3cc(F)c(Cl)c(F)c3)C(=O)N2C1 [PP1230] | 0.77 | 110 |  |  |  | A (a compound having 10 or more and less than 20 is denoted as A) | A (a compound having 10 or more and less than 20 is denoted as A) |  |  |
| CCOC[C@H]1C(=O)N[C@@H]([C@@H](C)CC)C(=O)N(C)CC(=O)N(C)[C@H]2C/C=C\CCN(C2=O)[C@@H](CC2CCC(F)(F)CC2)C(=O)N(C)CC(=O)N[C@@H](CCc2ccc(C(F)(F)F)c(Cl)c2)C(=O)N2C[C@@H](C)C[C@H]2C(=O)NC2(CC(C)(C)C2)C(=O)N(C)[C@@H](C(CC)CC)C(=O)N(C)[C@H](C(=O)N(C)C)CC(=O)N1C [PP2475] |  |  |  | 176 | 1.5 |  |  | A (a compound having 10 or more and less than 20 is denoted as A) | AA (a compound having 20 or more is denoted as AA) |
| CCCCCC[C@H]1C(=O)N[C@@H]([C@@H](C)CC)C(=O)N(C)CC(=O)N(C)[C@H]2C/C=C\CCN(C2=O)[C@@H](Cc2ccc(C(F)(F)F)cc2)C(=O)N(C)CC(=O)N[C@@H](CCc2ccc(C(F)(F)F)c(OC)c2)C(=O)N2C[C@H](OCC)C[C@H]2C(=O)NC2(CCC2)C(=O)N(C)[C@@H](C2CCCC2)C(=O)N(C)[C@H](C(=O)N(C)C)CC(=O)N1C [PP1246] | 0.081 | 9 |  |  |  | A (a compound having 10 or more and less than 20 is denoted as A) | A (a compound having 10 or more and less than 20 is denoted as A) |  |  |
| CCO[C@@H]1C[C@H]2C(=O)NC3(CCCC3)C(=O)N(C)[C@@H](C3CCCC3)C(=O)N(C)[C@H](C(=O)N(C)C)CC(=O)N(C)[C@@H](CC)C(=O)N[C@@H]([C@@H](C)CC)C(=O)N(C)CC(=O)N(C)[C@H]3CC[C@@H](C)CN(C3=O)[C@@H](Cc3ccc(C(F)(F)F)cc3)C(=O)N(C)CC(=O)N[C@@H](CCc3cc(F)c(C(F)(F)F)c(F)c3)C(=O)N2C1 [PP1370] | 0.057 | 2.3 |  |  |  | C (A compound having a KD ratio of 0.1 or more and less than 3 is denoted as C) | C (A compound having a KD ratio of 0.1 or more and less than 3 is denoted as C) |  |  |
